In patent publication US20120295804A1, “Compositions and Methods for Diagnosis and Treatment of Breast Cancer” (University of Medicine and Dentistry of New Jersey, priority 2011, published 2012):

How the values were obtained:
[1] = system: GJIC between Oct4^hi BCCs and BM stroma; assay: GJIC in co-cultures of Oct4^hi BCCs and bone marrow stroma with or without 1-octanol; assay type: cell-based; conditions: 300 μM 1-octanol
Description: Connexin (Cx) expression was studied using plasma membrane extracts from unsorted, Oct4^hi, Oct4^med and Oct4^− BCCs. […] It was next determined if the higher expression of connexins in BCCs could provide the cells with an advantage to form GJIC, in co-cultures of Oct4^hi BCCs and BM stroma. […] As expected, in the presence of the GJIC inhibitor 1-octanol, the intensity of Cx43 was reduced. GJIC was studied via dye transfer between BCCs and stroma using CFDA-SE-labeled Oct4^hi BCCs, as described previously (Lim, P. K. et al. 2011. Cancer Res. 71:1550-1560). Dye transfer into stroma was blunted by 1-octanol. Finally, the total number of BCCs showing dye transfer was counted in order to quantify functional GJIC.
GJIC was assessed by CFDA-SE dye exchange from BCCs to stroma in co-cultures, as described previously (Ramkisson, S. H. et al. 2007. Cancer Res. 67:1653-1659). Briefly, BCCs and stroma were co-cultured at equal ratios in α-MEM with 10% FCS, in the presence or absence of 300 μM 1-octanol. CFDA-SE dye transfer was assessed on an EVOS fl fluorescence imager (AMG Micro, Bothell, Wash.).

Oct4^− BCCs = assay: Chemical induction of GFP in Oct4(−) breast cancer cells stably transfected with pEGFP1-Oct3/4; assay type: cell-based; conditions: 2.7 μM BIX01294, 24 h, pEGFP1-Oct3/4 stable transfectants
Description: Therefore, different BCC subsets were selected based on Oct4 expression. To do this, MDA-MB-231 and T47D were stably transfected with an Oct4 reporter vector, pEGFP1-Oct3/4 (Gerrard, L. et al. 2005. Stem Cells 23:124-133). The transfected cells were sorted into three subsets based on GFP expression levels. The top 5% of GFP expressers were designated Oct4^hi and the lowest 5%, Oct4^−. The population between the extremes were designated Oct4^med. GFP intensities were validated for correlation with Oct4 protein by intracellular flow cytometry of pEGFP1-Oct3/4 transfectants. The Oct4^− population was similar to isotype control. In contrast, the mean fluorescence intensity (MFI) of cells labeled with APC-anti-Oct4 correlated with GFP intensities.
At 40-50% confluence stably transfected BCCs were treated with G9a histone methyltransferase inhibitor, [2-(Hexahydro-4-methyl-1H-1,4-diazepin-1-yl)-6,7-dimethoxy-N-[1-(phenylmethyl)-4-piperidinyl]4-quinazolinamine] (BIX01294, Enzo Life Sciences, Farmingdale, N.Y.). BIX01294 and similar chemicals can induce Oct4 in negative cells, in reprogramming (Huangfu, D. et al. 2008. Nat. Biotech. 26:795-797; Shi, Y. et al. 2008. Cell Stem Cell 3:568-574). Cells were treated with 2.7 μM BIX01294. After 24 h, images were taken by fluorescence microscopy. Control cells were untreated or treated with vehicle (dimethyl sulphoxide, DMSO).

unsorted BCCs = assay: Carboplatin response of subcutaneous tumors from unsorted BCCs; assay type: in vivo, nude BALB/c mice; conditions: 50 mg/kg i.p. twice at 3-day intervals
Method: (§1) Both triple-negative MDA-MB-231 and triple-positive T47D are expected to respond to carboplatin treatment, a drug which acts through a mechanism independent of hormone receptor status. Thus, the responsiveness to carboplatin was investigated in Oct4^hi cells from both cells lines. Tumors were injected into the dorsal flanks of mice as before. When the tumors were 0.5 cm^3 the mice were injected with carboplatin intra-peritoneally (i.p.).
(§2) Serial passage of different BCC subsets was performed by injecting BCCs in dorsal flanks of mice. The cells were resuspended in PBS and then mixed with matrigel at 1:1 ratio in 0.2 mL total volume. The cells were injected at different numbers, but in a constant volume to study dose effects on the time for tumor growth. Parallel analyses were performed with unsorted BCCs. Tumors were monitored daily for 30 days and measured in two dimensions with a caliper and volume was calculated using the following: formula V=πr^2h, where r=radius and h=height. Subsequent passages occurred by sorting the same cell subset (top 5% highest GFP) and then repeating the injection as above.
(§3) Carboplatin responses to tumor growth were assessed by subcutaneous injection of 200 Oct4^hi BCCs in matrigel in the dorsal flank. For unsorted BCCs, 10^6 cells were injected. […] Tumor sizes were recorded every 2 days with a caliper, as described for serial passage.

Oct4^hi BCCs = assay: Carboplatin response of subcutaneous tumors from Oct4^hi BCCs; assay type: in vivo, nude BALB/c mice; conditions: 50 mg/kg i.p. twice at 3-day intervals, same tumor size as unsorted BCCs
Method: as §1, §2, §3

Oct4^hi MDA-MB-231 = assay: Carboplatin resistance of Oct4^hi BCCs in bone marrow (femur endosteum); assay type: in vivo, mice; conditions: 10^3 Oct4^hi MDA-MB-231 i.v.; carboplatin 50 mg/kg i.p. at 3-day intervals; femurs examined one week after second injection
Method: It was then determined if Oct4^hi BCCs, at sites of distant metastasis, such as bone marrow, could resist carboplatin treatment. Bone marrow was selected for study because it is well-established that BCCs can attain dormancy in this organ, close to the endosteum (Lim, P. K. et al. 2011. Cancer Res. 71:1550-1560; Rao, G. et al. 2004. Cancer Res. 64:2874-2881). Mice were injected intravenously with 10^3 Oct4^hi MDA-MB-231. After 1 day, carboplatin was injected i.p. at 3-day intervals. One week after the second injection, femurs were decalcified, processed, and examined for GFP^+ cells. […] Similar cells were not detected in the cellular regions of the marrow, which were flushed from femurs prior to the analyses of the endosteal regions. Mice were injected intravenously with 10^3 BCCs, stably transfected with pEGFP1-Oct3/4. After 24 hours, mice were injected i.p. with carboplatin (50 mg/kg), followed by a second dose after 3 days. One week after the final injection of carboplatin, mice were euthanized, and the femurs were removed. Femurs were rinsed and the cells flushed using a 27 gauge needle attached to a syringe with PBS to remove the cells within the central region of the cavity. After this, the femurs were fixed overnight in 4% formaldehyde at 4° C. […] Slides were examined with an EVOS fl fluorescence imager.

[2] = system: Oct4^hi BCCs (MDA-MB-231 and T47D); assay: Hoechst 33342 dye exclusion (side population) in the presence or absence of verapamil; assay type: cell-based; conditions: 400 μM verapamil, 5 μg/mL Hoechst 33342, Oct4^hi population
Method: FIG. 7 depicts results of experiments of dye retention in BCC subsets. Oct4^hi BCCs were labeled with Hoechst 33342 (5 μg/mL), in the presence or absence of 400 μM verapamil. Propidium iodide-negative cells were gated based on GFP intensity. The cells were analyzed on Hoechst Blue and Hoechst Red filters. Side population cells that were Hoechst negative (circled) were compared in the two experimental conditions. The figure represents five different experiments, with MDA-MB-231 and T47D.
Experiments were then performed to determine if drug resistance genes played any role in the differentiation of BCC subsets. […] Oct4^hi cells were incubated in the presence or absence of verapamil, which inhibits multi-drug resistance transporters, and then dye exclusion was tested in four different experiments. Oct4^hi, Oct4^med and Oct4^− cells were tested. […] Only few Oct4^med (FIG. 8) and Oct4^− cells (FIG. 9) excluded the dye.
Side population analysis of the pEGFP1-Oct4 stable transfectants was performed using the LSR II (BD Biosciences). […] Optimal titrations and conditions were determined to be 5 μg/ml Hoechst 33342 (90 min incubation at 37° C.) and 400 μM verapamil (10 min pre-incubation). […] The cells between the two extremes were also analyzed (Oct4^med).

Q: What does the source list for `CCCCCCCCO` [1-octanol]?
A: CFDA-SE dye transfer into stroma ([1]; CFDA-SE-labeled Oct4^hi BCCs): blunted; intensity of Cx43 immunofluorescence ([1]; co-cultures of Oct4^hi BCCs and BM stroma): reduced

Q: For `COc1cc2nc(N3CCCN(C)CC3)nc(NC3CCN(Cc4ccccc4)CC3)c2cc1OC` [BIX01294, 2-(Hexahydro-4-methyl-1H-1,4-diazepin-1-yl)-6,7-dimethoxy-N-[1-(phenylmethyl)-4-piperidinyl]4-quinazolinamine], which “Oct4^− BCCs reverted to high GFP expression” value (Oct4^− BCCs) is on record?
A: 92.5%±4.4%

Q: For `N.N.O=C([O-])C1(C(=O)[O-])CCC1.[Pt+2]` [carboplatin], which “tumors eight days after treatment with carboplatin” value (unsorted BCCs; mice injected with unsorted BCCs) is on record?
A: tumors were undetectable

Q: What about the “tumor change after the second injection of carboplatin” value (unsorted BCCs; tumors 0.5 cm^3 at start, vs Oct4^hi and untreated unsorted BCC) of the same compound?
A: significant (p<0.05) reduction

Q: What about the “tumors after carboplatin treatment” value (Oct4^hi BCCs) of the same compound?
A: retained palpable tumors

Q: And the “GFP^+ BCCs in femur after carboplatin” value (Oct4^hi MDA-MB-231)?
A: drug resistance in GFP^+ BCCs close to the endosteum of bone marrow

Q: For `COc1ccc(CCN(C)CCCC(C#N)(c2ccc(OC)c(OC)c2)C(C)C)cc1OC` (centres unmarked) [verapamil], which “difference in Hoechst dye retention with verapamil” value [2] is on record?
A: 3 fold
